Assay results as given in patent US7446199B2, “Compositions useful as inhibitors of protein kinases” (Vertex Pharmaceuticals Incorporated, priority 2003, dated 2008).

What was measured:
JAK3 = biological target: T1, JAK3 (Homo sapiens, UniProt P52333); experiment: JAK3 inhibition assay (ELISA, Poly (Glu, Ala, Tyr) coated plates); format: biochemical; conditions: 2 mM ATP, 60 minutes at 30° C.
T1 sequence (P52333 1-1124): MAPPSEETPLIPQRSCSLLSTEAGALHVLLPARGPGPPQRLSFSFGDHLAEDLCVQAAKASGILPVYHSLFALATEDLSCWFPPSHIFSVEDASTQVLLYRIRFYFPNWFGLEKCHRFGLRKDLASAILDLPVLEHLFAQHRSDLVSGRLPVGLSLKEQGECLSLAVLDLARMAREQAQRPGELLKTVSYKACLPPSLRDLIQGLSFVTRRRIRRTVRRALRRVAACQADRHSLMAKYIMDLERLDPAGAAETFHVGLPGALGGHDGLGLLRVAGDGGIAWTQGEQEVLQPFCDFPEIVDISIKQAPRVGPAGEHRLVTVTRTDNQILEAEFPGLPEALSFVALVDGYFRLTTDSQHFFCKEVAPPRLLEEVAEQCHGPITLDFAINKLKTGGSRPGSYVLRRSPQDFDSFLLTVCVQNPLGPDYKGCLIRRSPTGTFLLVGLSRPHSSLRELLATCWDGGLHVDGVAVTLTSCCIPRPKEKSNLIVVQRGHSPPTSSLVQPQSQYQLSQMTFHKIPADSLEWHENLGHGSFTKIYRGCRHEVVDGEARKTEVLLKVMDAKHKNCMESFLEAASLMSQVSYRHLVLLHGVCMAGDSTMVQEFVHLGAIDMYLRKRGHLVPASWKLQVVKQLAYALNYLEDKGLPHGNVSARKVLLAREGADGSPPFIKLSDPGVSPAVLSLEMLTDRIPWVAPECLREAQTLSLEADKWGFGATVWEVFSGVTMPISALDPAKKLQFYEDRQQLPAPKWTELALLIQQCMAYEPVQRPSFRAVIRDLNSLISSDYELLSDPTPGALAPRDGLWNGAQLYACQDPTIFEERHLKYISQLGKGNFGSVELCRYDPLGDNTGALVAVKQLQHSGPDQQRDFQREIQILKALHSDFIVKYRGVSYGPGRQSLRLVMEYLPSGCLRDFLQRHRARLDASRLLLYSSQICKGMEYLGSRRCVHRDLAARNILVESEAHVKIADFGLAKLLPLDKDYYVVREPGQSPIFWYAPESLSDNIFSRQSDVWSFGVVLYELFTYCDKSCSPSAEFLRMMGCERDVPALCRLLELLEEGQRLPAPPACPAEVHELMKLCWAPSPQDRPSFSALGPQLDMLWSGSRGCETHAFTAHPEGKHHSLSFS
In short: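 ELISA on Poly(Glu,Ala,Tyr) 6:3:1-coated plates with 2 mM ATP and 5 mM MgCl2. JAK enzyme started the reaction, run 60 min at 30° C. Phosphotyrosine was detected with HRP-conjugated 4G10 antibody and TMB, read at 450 nm, and IC50 was derived from optical densities.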

Aurora-2 = biological target: T2, Aurora-2 (Homo sapiens, UniProt O14965); experiment: Inhibition of AUR-2, coupled enzyme assay; format: biochemical; conditions: 70 nM Aurora-2, 800 μM peptide LRRASLG, 30° C.
T2 construct: addition of 10 μL of Aurora-2 stock solution to give a final concentration of 70 nM
T2 sequence (O14965 1-403): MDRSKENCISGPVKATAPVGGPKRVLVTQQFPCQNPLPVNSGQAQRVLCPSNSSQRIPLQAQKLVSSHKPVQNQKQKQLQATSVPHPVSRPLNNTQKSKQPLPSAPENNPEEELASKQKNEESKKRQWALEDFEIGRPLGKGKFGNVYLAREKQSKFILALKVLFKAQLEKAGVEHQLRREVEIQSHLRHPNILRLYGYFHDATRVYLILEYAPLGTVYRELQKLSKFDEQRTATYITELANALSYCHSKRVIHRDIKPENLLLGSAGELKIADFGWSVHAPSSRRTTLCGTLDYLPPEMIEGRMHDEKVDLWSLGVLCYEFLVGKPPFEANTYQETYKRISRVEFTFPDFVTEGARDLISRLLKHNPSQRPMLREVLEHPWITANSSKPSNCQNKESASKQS
Protocol: Compounds are screened in the following manner for their ability to inhibit Aurora-2 using a standard coupled enzyme assay (Fox et al. (1998) Protein Sci 7, 2249). To an assay stock buffer solution containing 0.1M HEPES 7.5, 10 mM MgCl2, 1 mM DTT, 25 mM NaCl, 2.5 mM phosphoenolpyruvate, […], […], […], and 800 μM peptide (LRRASLG, American Peptide, Sunnyvale, Calif.) is added a DMSO solution of a compound of the present invention to a final concentration of 30 μM. The resulting mixture is incubated at 30° C. for 10 min. The reaction was initiated by the addition of 10 μL of Aurora-2 stock solution to give a final concentration of 70 nM in the assay. The rates of reaction are obtained by monitoring absorbance at 340 nm over a 5 minute read time at 30° C. using a BioRad Ultramark plate reader (Hercules, Calif.). The Ki values are determined from the rate data as a function of inhibitor concentration.

Ki (JAK3) [nM]	Ki (Aurora-2) [nM]	SMILES
< 200	200 to 1000	COc1cnc2[nH]cc(-c3oncc3-c3cccc(F)c3F)c2c1 [Compound 38, 3-[4-(2,3-Difluoro-phenyl)-isoxazol-5-yl]-5-methoxy-1H-pyrrolo[2,3-b]pyridine]
< 200	< 200	Fc1cccc(-c2cnoc2-c2c[nH]c3ncc(Br)cc23)c1F [Compound 37, 5-Bromo-3-[4-(2,3-difluoro-phenyl)-isoxazol-5-yl]-1H-pyrrolo[2,3-b]pyridine]
< 200	< 200	COc1cncc(-c2cnc3[nH]cc(-c4oncc4-c4cccc(F)c4F)c3c2)c1 [Compound 96, 3-[4-(2,3-Difluoro-phenyl)-isoxazol-5-yl]-5-(5-methoxy-pyridin-3-yl)-1H-pyrrolo[2,3-b]pyridine]
< 200	–	CN(C)Cc1ccc(-c2cnc3[nH]cc(-c4oncc4-c4cccc(F)c4F)c3c2)nc1 [Compound 84, (6-{3-[4-(2,3-Difluoro-phenyl)-isoxazol-5-yl]-1H-pyrrolo[2,3-b]pyridin-5-yl}-pyridin-3-ylmethyl)-dimethyl-amine]
200 to 1000	–	Fc1cccnc1-c1cnc2[nH]cc(-c3oncc3-c3cccc(F)c3F)c2c1 [Compound 74, 3-[4-(2,3-Difluoro-phenyl)-isoxazol-5-yl]-5-(3-fluoro-pyridin-2-yl)-1H-pyrrolo[2,3-b]pyridine]
200 to 1000	–	Fc1cccc(-c2cnoc2-c2c[nH]c3ncc(-c4cncnc4)cc23)c1F [Compound 85, 3-[4-(2,3-Difluoro-phenyl)-isoxazol-5-yl]-5-pyrimidin-5-yl-1H-pyrrolo[2,3-b]pyridine]
1000 to 12500	–	Fc1ccc(-c2cnoc2-c2c[nH]c3ncccc23)c(F)c1F [Compound 40, 3-[4-(2,3,4-Trifluoro-phenyl)-isoxazol-5-yl]-1H-pyrrolo [2,3-b]pyridine]
< 200	–	Fc1cccc(-c2cnoc2-c2c[nH]c3ncc(/C=C/n4cncn4)cc23)c1F [Compound 133, 3-[4-(2,3-Difluoro-phenyl)-isoxazol-5-yl]-5-(2-[1,2,4]triazol-1-yl-vinyl)-1H-pyrrolo[2,3-b]pyridine]
< 200	–	CN(C)C1CC=C(c2cnc3[nH]cc(-c4oncc4-c4cccc(F)c4F)c3c2)CC1 (stereo not shown) [Compound 138, (4-{3-[4-(2,3-Difluoro-phenyl)-isoxazol-5-yl]-1H-pyrrolo[2,3-b]pyridin-5-yl}-cyclohex-3-enyl)-dimethyl-amine]
200 to 1000	–	CN(C)Cc1cc(Cl)nc(-c2cnc3[nH]cc(-c4oncc4-c4cccc(F)c4F)c3c2)c1 [Compound 81, (2-Chloro-6-{3-[4-(2,3-difluoro-phenyl)-isoxazol-5-yl]-1H-pyrrolo[2,3-b]pyridin-5-yl}-pyridin-4-ylmethyl)-dimethyl-amine]
200 to 1000	–	COc1ccnc(-c2cnc3[nH]cc(-c4oncc4-c4cccc(F)c4F)c3c2)c1 [Compound 78, 3-[4-(2,3-Difluoro-phenyl)-isoxazol-5-yl]-5-(4-methoxy-pyridin-2-yl)-1H-pyrrolo[2,3-b]pyridine]
< 200	–	C=Cc1cnc2[nH]cc(-c3oncc3-c3cccc(F)c3F)c2c1 [Compound 66, 3-[4-(2,3-Difluoro-phenyl)-isoxazol-5-yl]-5-vinyl-1H-pyrrolo[2,3-b]pyridine]
200 to 1000	–	CN(C)c1cccc(-c2cnc3[nH]cc(-c4oncc4-c4cccc(F)c4F)c3c2)c1 [Compound 61, (3-{3-[4-(2,3-Difluoro-phenyl)-isoxazol-5-yl]-1H-pyrrolo[2,3-b]pyridin-5-yl}-phenyl)-dimethyl-amine]
< 200	–	O=c1ccc(-c2cnc3[nH]cc(-c4oncc4-c4cccc(F)c4F)c3c2)c[nH]1 [Compound 67, 5-{3-[4-(2,3-Difluoro-phenyl)-isoxazol-5-yl]-1H-pyrrolo [2,3-b]pyridin-5-yl}-1H-pyridin-2-one]

Second part, the compound before the results:

SMILES	Ki (JAK3) [nM]	Ki (Aurora-2) [nM]
Fc1c(Cl)cccc1-c1cnoc1-c1c[nH]c2ncccc12 [Compound 42, 3-[4-(3-Chloro-2-fluoro-phenyl)-isoxazol-5-yl]-1H-pyrrolo[2,3-b]pyridine]	200 to 1000	200 to 1000
c1cnc2[nH]cc(-c3oncc3C3CCCCC3)c2c1 [Compound 47, 3-(4-Cyclohexyl-isoxazol-5-yl)-1H-pyrrolo[2,3-b]pyridine]	200 to 1000	200 to 1000
CN1CCN(c2ccc(-c3cnc4[nH]cc(-c5oncc5-c5cccc(F)c5F)c4c3)cc2)CC1 [Compound 70, 3-[4-(2,3-Difluoro-phenyl)-isoxazol-5-yl]-5-[4-(4-methyl-piperazin-1-yl)-phenyl]-1H-pyrrolo[2,3-b]pyridine methanesulfonate]	< 200	< 200
Fc1cccc(-c2cnoc2-c2c[nH]c3ncc(-c4ccc(CN5CCOCC5)cc4)cc23)c1F [Compound 92, 3-[4-(2,3-Difluoro-phenyl)-isoxazol-5-yl]-5-(4-morpholin-4-ylmethyl-phenyl)-1H-pyrrolo[2,3-b]pyridine]	< 200	< 200
CN(C)CCNc1ccc(-c2cnc3[nH]cc(-c4nncn4-c4cccc(F)c4F)c3c2)cn1 [Compound 119, N′-(5-{3-[4-(2,3-Difluoro-phenyl)-4H-[1,2,4]triazol-3-yl]-1H-pyrrolo[2,3-b]pyridin-5-yl}-pyridin-2-yl)-N,N-dimethyl-ethane-1,2-diamine]	1000 to 12500	–
CS(=O)(=O)NC1CC=C(c2cnc3[nH]cc(-c4oncc4-c4cccc(F)c4F)c3c2)CC1 (stereo not shown) [Compound 140, N-(4-{3-[4-(2,3-Difluoro-phenyl)-isoxazol-5-yl]-1H-pyrrolo[2,3-b]pyridin-5-yl}-cyclohex-3-enyl)-methanesulfonamide]	< 200	–
Cc1noc(-c2c[nH]c3ncc(-c4ccc(N5CCN(C)CC5)cc4)cc23)c1-c1cccc(F)c1F [Compound 135, 3-[4-(2,3-Difluoro-phenyl)-3-methyl-isoxazol-5-yl]-5-[4-(4-methyl-piperazin-1-yl)-phenyl]-1H-pyrrolo[2,3-b]pyridine]	< 200	–
CNc1ccc2c(-c3oncc3-c3cccc(F)c3F)c[nH]c2n1 [Compound 102, {3-[4-(2,3-Difluoro-phenyl)-isoxazol-5-yl]-1H-pyrrolo[2,3-b]pyridin-6-yl}-methyl-amine]	1000 to 12500	–
Fc1cccc(-n2cnnc2-c2c[nH]c3ncc(-c4ccc(N5CCCC5)nc4)cc23)c1F [Compound 118, 3-[4-(2,3-Difluoro-phenyl)-4H-[1,2,4]triazol-3-yl]-5-(6-pyrrolidin-1-yl-pyridin-3-yl)-1H-pyrrolo[2,3-b]pyridine]	200 to 1000	–
N#CCC(=O)N1CCC(c2cnc3[nH]cc(-c4oncc4-c4cccc(F)c4F)c3c2)CC1 [Compound 64, 3-(4-{3-[4-(2,3-Difluoro-phenyl)-isoxazol-5-yl]-1H-pyrrolo[2,3-b]pyridin-5-yl}-piperidin-1-yl)-3-oxo-propionitrile]	200 to 1000	–
